Test results: article PMC3916391 (PLoS Pathogens, 2014)
Where two headings read alike, the source gives them in different places.

Biological target: T1, pyocin L1 (Pseudomonas aeruginosa, UniProt T2LG16)
T1 construct: full length, 256 residues, 28413 Da; expressed in E. coli BL21(DE3)pLysS (pETPyoL1); monomer
T1 sequence (T2LG16 1-256): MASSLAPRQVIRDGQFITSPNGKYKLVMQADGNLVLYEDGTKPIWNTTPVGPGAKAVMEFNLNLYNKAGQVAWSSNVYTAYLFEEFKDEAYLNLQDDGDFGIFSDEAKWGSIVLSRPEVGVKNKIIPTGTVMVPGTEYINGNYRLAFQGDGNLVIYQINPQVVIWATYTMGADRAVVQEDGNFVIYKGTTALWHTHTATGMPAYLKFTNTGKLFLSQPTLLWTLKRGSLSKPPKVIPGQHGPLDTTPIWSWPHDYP
Type: binding

OC[C@H]1OC(O)[C@@H](O)[C@@H](O)[C@@H]1O (stereo partly drawn) [D-mannose]
Kd (read-out: Kd): > 50 mM

C[C@H]1OC(O)[C@@H](O)[C@@H](O)[C@@H]1O (stereo partly drawn) [D-rhamnose]
Kd (read-out: apparent Kd): 5 to 10 mM
